The compounds below were run on HEK293T cells carrying the ATF4 luciferase reporter (assay: ATF4-Luc assay, in vitro model of Vanishing Cell White Matter Disease (VWMD)). Conditions: Homo sapiens, HEK-293T, 1 μg/mL tunicamycin, 7 hours, One Glo luminescence.
Assay type: cell-based
In short: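 Stable HEK293T line with human ATF4 5′-UTR–firefly luciferase reporter treated with 1 μg/mL tunicamycin plus 200 nM compound for 7 h. Luminescence read; EC50 derived.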

`N#Cc1ccc(C(=O)NC23CC(NC(=O)COc4ccc(Cl)c(F)c4)(C2)C3)s1` [Compound 885, N-{3-[2-(4-chloro-3-fluorophenoxy)acetamido]bicyclo[1.1.1]pentan-1-yl}-5-cyanothiophene-2-carboxamide] was tested. Which EC50 did it give?
Its EC50 is > 2 µM.

Which EC50 does the source give for `Cn1c(C(=O)NC23CC(NC(=O)COc4ccc(Cl)c(F)c4)(C2)C3)ccc1S(N)(=O)=O` [Compound 867, N-{3-[2-(4-chloro-3-fluorophenoxy)acetamido]bicyclo[1.1.1]pentan-1-yl}-1-methyl-5-sulfamoyl-1H-pyrrole-2-carboxamide] here?
Its EC50 is > 2 µM.

How did the EC50 turn out when `CN(C)c1cccc(C(=O)NC23CC(NC(=O)COc4ccc(Cl)c(F)c4)(C2)C3)c1` [Compound 534, N-{3-[2-(4-chloro-3-fluorophenoxy)acetamido]bicyclo[1.1.1]pentan-1-yl}-3-(dimethylamino)benzamide] was run?
The EC50 was 0.25 to 1 µM.

With `O=C(COc1ccc(Cl)c(F)c1)NC12CC(NC(=O)c3cnc4[nH]ncc4c3)(C1)C2` [Compound 608, N-{3-[2-(4-chloro-3-fluorophenoxy)acetamido]bicyclo[1.1.1]pentan-1-yl}-1H-pyrazolo[3,4-b]pyridine-5-carboxamide] as the compound, how does the EC50 read?
The EC50 was 0.05 to 0.25 µM.

How did the EC50 turn out when `Cc1cncc(C(=O)NC23CCC(NC(=O)COc4ccc(Cl)c(F)c4)(CC2)C[C@@H]3O)n1` [Compound 734, N-{(2S)-4-[2-(4-chloro-3-fluorophenoxy)acetamido]-2-hydroxybicyclo[2.2.2]octan-1-yl}-6-methylpyrazine-2-carboxamide] was run?
Its EC50 is < 0.05 µM.

`Cc1nc(C(=O)NC23CC(NC(=O)COc4ccc(Cl)c(Cl)c4)(C2)C3)cs1` [Compound 559, N-{3-[2-(3,4-dichlorophenoxy)acetamido]bicyclo[1.1.1]pentan-1-yl}-2-methyl-1,3-thiazole-4-carboxamide] was tested. Which EC50 did it give?
Its EC50 is < 0.05 µM.

Which EC50 does the source give for `CCc1ocnc1C(=O)NC12CC(NC(=O)COc3ccc(Cl)c(F)c3)(C1)C2` [Compound 859, N-{3-[2-(4-chloro-3-fluorophenoxy)acetamido]bicyclo[1.1.1]pentan-1-yl}-5-ethyl-1,3-oxazole-4-carboxamide] here?
Its EC50 is > 2 µM.

Which EC50 does the source give for `Cc1nc(C(=O)NC23CCC(NC(=O)COc4ccc(Cl)c(F)c4)(CC2)C(O)C3)n[nH]1` (centres unmarked) [Compound 487, N-{4-[2-(4-chloro-3-fluorophenoxy)acetamido]-3-hydroxybicyclo[2.2.2]octan-1-yl}-5-methyl-1H-1,2,4-triazole-3-carboxamide] here?
The EC50 was < 0.05 µM.

For `COCn1ccc(C(=O)NC23CC(NC(=O)COc4ccc(Cl)c(F)c4)(C2)C3)n1` [Compound 260, N-{3-[2-(4-chloro-3-fluorophenoxy)acetamido]bicyclo[1.1.1]pentan-1-yl}-1-(methoxymethyl)-1H-pyrazole-3-carboxamide], which EC50 is on record?
Its EC50 is 0.25 to 1 µM.

For `COc1cccc(C(=O)NC23CC(NC(=O)COc4ccc(Cl)c(F)c4)(C2)C3)n1` [Compound 829, N-{3-[2-(4-chloro-3-fluorophenoxy)acetamido]bicyclo[1.1.1]pentan-1-yl}-6-methoxypyridine-2-carboxamide], which EC50 is on record?
Its EC50 is 0.05 to 0.25 µM.

`CC(=O)c1ccnc(C(=O)NC23CC(NC(=O)COc4ccc(Cl)c(F)c4)(C2)C3)c1` [Compound 501, 4-acetyl-N-{3-[2-(4-chloro-3-fluorophenoxy)acetamido]bicyclo[1.1.1]pentan-1-yl}pyridine-2-carboxamide] was tested. Which EC50 did it give?
The EC50 was 1 to 2 µM.

Which EC50 does the source give for `O=C(COc1ccc(Cl)c(F)c1)NC12CC(NC(=O)c3cc(-c4ccc(Cl)cc4)on3)(C1)C2` [Compound 113, N-{3-[2-(4-chloro-3-fluorophenoxy)acetamido]bicyclo[1.1.1]pentan-1-yl}-5-(4-chlorophenyl)-1,2-oxazole-3-carboxamide] here?
Its EC50 is 0.05 to 0.25 µM.

How did the EC50 turn out when `O=C(COc1ccc(Cl)c(F)c1)NC12CC(NC(=O)c3cc(CO)ccn3)(C1)C2` [Compound 178, N-{3-[2-(4-chloro-3-fluorophenoxy)acetamido]bicyclo[1.1.1]pentan-1-yl}-4-(hydroxymethyl)pyridine-2-carboxamide] was run?
Its EC50 is 0.05 to 0.25 µM.

How did the EC50 turn out when `Cc1cc2ncc(C(=O)NC34CC(NC(=O)COc5ccc(Cl)c(F)c5)(C3)C4)cn2n1` [Compound 748, N-{3-[2-(4-chloro-3-fluorophenoxy)acetamido]bicyclo[1.1.1]pentan-1-yl}-2-methylpyrazolo[1,5-a]pyrimidine-6-carboxamide] was run?
The EC50 was 0.25 to 1 µM.
